Measured values taken from patent US10227663B2, “Non-replicative transduction particles and transduction particle-based reporter systems” (priority 2013, dated 2019).
Converted amounts (≈) assume the structure as drawn. Where two headings read alike, the source gives them in different places.

How the values were obtained:
[1] = tested on: cefoxitin resistant S. aureus (MRSA strains); experiment: MIC determination via plating on TSA plates containing cefoxitin; format: cell-based; settings: Staphylococcus aureus
Procedure: (§1) Overnight Culture: For each MRSA strain ([…] and S7) and a MSSA negative control strain (MSSA121), 2 mL of TSB were inoculated with a colony of the strain previously grown on TSA plates. Overnight MRSA cultures included 5 ug/mL cefoxitin. All samples were incubated overnight at 37° C. in a shaking incubator.
(§2) Day Culture: 20 uL of each of the overnight cultures were transferred into a new culture tube containing 2 mL of Growth Media Reagent. The inoculums were then incubated at 37 C with shaking for approximately 1 hr 45 min, until the OD(600 nm) reached 0.1.
a) Each of the day cultures was streaked onto TSA plates containing cefoxitin at 4, 8, 16, 32, 64, and 128 ug/mL.
b) Plates were incubated for 18 hours at 37 C to determine growth.

[2] = tested on: cefoxitin resistant S. aureus (MRSA strains); experiment: NRTP-based cefoxitin susceptibility assay (luminescence); format: cell-based, Staphylococcus aureus
Procedure: as §1, §2
a) Wells of a white 96 well assay plate were filled with 100 uL of 2× Transduction Particle Reagent.
b) For each of the day cultures, five wells were then filled with 100 uL of day culture.
c) For each of the day cultures, cefoxitin was added to one well each such that the cefoxitin concentration in the well was at 4, 8, 16, 32, 64, and 128 ug/mL. […]
At the end of 4 hours, the plate was remove from incubator and immediately measured for luminescence on a SpectraMax L that injected 50 μl of the Substrate Reagent and measured luminescence for a period of 1 minute.
The maximum luminescence value after Substrate Reagent addition from each sample was plotted. MSSA sample RLU values were used to determine a Cutoff calculated using the following formula: (Mean MSSA RLU+3*SD MSSA RLU).

CO[C@@]1(NC(=O)Cc2cccs2)C(=O)N2C(C(=O)O)=C(COC(N)=O)CS[C@@H]21 [cefoxitin]
MIC ([1]; MRSA / NRS 25, 18 h): 128 µg/mL (≈ 299 µM) | MIC ([1]; MRSA S7, TSA plates, 18 hours at 37 C, read-out: MIC): 64 µg/mL (≈ 150 µM) | Cefoxitin concentration up to which luminescence was above the MSSA RLU cutoff ([2]; MRSA NRS25, 4 hours at 37° C.): up to 64 ug/mL | Cefoxitin concentration up to which luminescence was above the MSSA RLU cutoff ([2]; MRSA S7, 4 hours at 37° C.): up to 32 ug/mL
